The values that follow come from PubChem BioAssay (NCI).

Some test systems named below: UACC-62 melanoma; ACHN renal; OVCAR-5 ovarian; OVCAR-4 ovarian; TK-10 renal; SK-OV-3 ovarian; K-562 leukemia; M14 melanoma; UACC-257 melanoma; CCRF-CEM leukemia.
Holding throughout (assay): DTP human tumour cell line panel, 48 h

The GI50 is the concentration at which growth is held to half of that of the control. What is called TGI is the concentration giving total growth inhibition. A low value points to more potent growth arrest.

SMILES strings stand for the structures.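 These data come from cells grown in 96-well plates and exposed to compound for 48 hours at five concentrations. Here, GI50 denotes the concentration required for 50% inhibition of growth. TGI marks complete inhibition of growth.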

As for `C[C@@H]1C[C@H](C)CN(S(=O)(=O)c2ccc3c(NO)c4ccc(S(=O)(=O)N5C[C@H](C)C[C@H](C)C5)cc4c(N=O)c3c2)C1`, the GI50 in the experiment with UACC-62 melanoma is 0.181 µM; with ACHN renal, 0.143 µM; in the experiment with OVCAR-5 ovarian, 0.173 µM; in the experiment with OVCAR-4 ovarian it was 0.17 µM; in the experiment with TK-10 renal, 0.168 µM; in the experiment on SK-OV-3 ovarian, 0.122 µM. For the same molecule, the GI50 in the experiment with K-562 leukemia was 0.0356 µM; with M14 melanoma it was 0.103 µM. Also, the concentration for total growth inhibition (TGI) in the experiment with UACC-62 melanoma turned out to be 0.345 µM; with ACHN renal it was 0.293 µM; with OVCAR-5 ovarian, 0.4 µM; with OVCAR-4 ovarian, 0.346 µM; in the experiment with TK-10 renal it was 0.321 µM; in the experiment with SK-OV-3 ovarian it was 0.248 µM. The results for the TGI in the experiment with K-562 leukemia and with M14 melanoma were 0.12 µM and 0.231 µM, respectively.
`COc1cc2c(c(OC)c1OC)-c1ncc3c(OC)c(OC)c(OC)cc3c1C2`: the GI50 was 21.1 µM with UACC-62 melanoma; 31.2 µM in the experiment with ACHN renal; 17.4 µM in the experiment with OVCAR-5 ovarian; 49.6 µM with OVCAR-4 ovarian; 22.5 µM in the experiment on TK-10 renal; 29.5 µM in the experiment with SK-OV-3 ovarian. For the same molecule, the GI50 was 19.2 µM with K-562 leukemia and 39.8 µM in the experiment on M14 melanoma. The TGI was 49.3 µM in the experiment with UACC-62 melanoma; > 100 µM in the experiment on ACHN renal; 77.9 µM in the experiment on OVCAR-5 ovarian; > 100 µM with OVCAR-4 ovarian; 63.5 µM with TK-10 renal; 74.9 µM with SK-OV-3 ovarian. Besides, the TGI in the experiment with K-562 leukemia is 50.3 µM; in the experiment with M14 melanoma, > 100 µM.
As to `COc1ccc(-c2cs/c(=N\N=C\c3ccc(O)cc3O)n2/N=C/c2ccc(O)cc2O)cc1`, the GI50 in the experiment with UACC-62 melanoma is 1.76 µM; in the experiment with ACHN renal, 1.8 µM; in the experiment with OVCAR-5 ovarian it was 2.37 µM; in the experiment on OVCAR-4 ovarian it was 2.17 µM; in the experiment with TK-10 renal, 2.46 µM; in the experiment with SK-OV-3 ovarian it was 2.31 µM. Besides, the GI50 in the experiment on UACC-257 melanoma is 2.28 µM; with K-562 leukemia, 2.62 µM; with M14 melanoma, 1.63 µM. In addition, the TGI with UACC-62 melanoma turned out to be 3.73 µM; in the experiment with ACHN renal, 3.84 µM; in the experiment with OVCAR-5 ovarian, 5.18 µM; with OVCAR-4 ovarian, 7.12 µM; in the experiment on TK-10 renal, 5.1 µM; in the experiment on SK-OV-3 ovarian, 5.02 µM. Besides, the TGI in the experiment with UACC-257 melanoma was 6.19 µM; with K-562 leukemia, > 100 µM; with M14 melanoma, 3.21 µM.
In the case of `S=c1snc2n1CCN2`, the GI50 in the experiment with UACC-62 melanoma is 95.5 µM; in the experiment on ACHN renal, > 100 µM; in the experiment on OVCAR-5 ovarian, > 100 µM; in the experiment on OVCAR-4 ovarian, > 100 µM; with TK-10 renal, > 100 µM; with UACC-257 melanoma, > 100 µM. Further, the GI50 in the experiment on K-562 leukemia was > 100 µM; with M14 melanoma, > 100 µM; with CCRF-CEM leukemia it was 33.4 µM. The TGI in the experiment with UACC-62 melanoma, in the experiment with ACHN renal, in the experiment on OVCAR-5 ovarian, with OVCAR-4 ovarian, with TK-10 renal and in the experiment on UACC-257 melanoma was > 100 µM each time. In addition, the TGI in the experiment with K-562 leukemia, in the experiment with M14 melanoma and with CCRF-CEM leukemia was > 100 µM in each case.
Turning to `O=C(O)c1ccc(NCn2nc(-c3ccccc3O)oc2=S)cc1`, the GI50 in the experiment on UACC-62 melanoma is 34.1 µM; with ACHN renal it was 27.7 µM; in the experiment on OVCAR-5 ovarian, > 100 µM; with TK-10 renal it was > 100 µM; in the experiment with UACC-257 melanoma it was > 100 µM; in the experiment on K-562 leukemia, 40.7 µM. The GI50 in the experiment on M14 melanoma is 53.5 µM; in the experiment with CCRF-CEM leukemia, 7.38 µM. Further, the TGI is 97.7 µM in the experiment with UACC-62 melanoma; 72 µM with ACHN renal; > 100 µM in the experiment on OVCAR-5 ovarian; > 100 µM in the experiment on TK-10 renal; > 100 µM in the experiment on UACC-257 melanoma; > 100 µM with K-562 leukemia. In addition, the TGI in the experiment with M14 melanoma and in the experiment with CCRF-CEM leukemia was > 100 µM each time.
`N/N=C1\C(=O)N(C2CCCCCC2)C(=O)C1C(=O)NC1CCCCCC1` (stereo not given): the TGI in the experiment with UACC-62 melanoma was 41.6 µM; in the experiment with ACHN renal, > 100 µM; in the experiment on OVCAR-5 ovarian, > 100 µM; with OVCAR-4 ovarian, > 100 µM; in the experiment on TK-10 renal, > 10 µM; with UACC-257 melanoma, > 100 µM. The total growth inhibition concentration (TGI) was > 100 µM with K-562 leukemia, > 100 µM with M14 melanoma and 80.8 µM in the experiment with CCRF-CEM leukemia.
In the case of `CC(C)(C)c1cc(C(O)(C(F)(F)F)C(F)(F)F)c2c(c1)C(C(F)(F)F)(C(F)(F)F)OC(C)(C(C)(C)C)N2` (stereo not given), the TGI in the experiment on UACC-62 melanoma is 15 µM; with ACHN renal it was 12.1 µM; in the experiment with OVCAR-5 ovarian it was > 100 µM; in the experiment on OVCAR-4 ovarian it was > 100 µM; with SK-OV-3 ovarian, 6.14 µM; with UACC-257 melanoma, 27.4 µM. Moreover, the concentration for total growth inhibition (TGI) with K-562 leukemia is 12.7 µM; in the experiment with M14 melanoma it was 13.6 µM.
`COc1cc(C2SCCCCCCCCCCSC(c3ccc(O)c(OC)c3)SCCCCCCCCCCS2)ccc1O` (stereo not given): the concentration for total growth inhibition (TGI) with UACC-62 melanoma, with ACHN renal, with OVCAR-5 ovarian, with OVCAR-4 ovarian, in the experiment on TK-10 renal and in the experiment with SK-OV-3 ovarian was > 100 µM throughout. In addition, the total growth inhibition concentration (TGI) with UACC-257 melanoma, in the experiment with K-562 leukemia and in the experiment on M14 melanoma was > 100 µM in each case.
Consider `Nc1ccccc1C#C/C=C\C#Cc1ccc(OCCCNC(=O)c2cc3ccccc3[nH]2)cc1`, for which the GI50 was 4.11 µM in the experiment with UACC-62 melanoma; 6.61 µM in the experiment with ACHN renal; 32.3 µM with OVCAR-5 ovarian; 21.4 µM with OVCAR-4 ovarian; 17.3 µM in the experiment on TK-10 renal; 4.36 µM in the experiment on SK-OV-3 ovarian. Further, the GI50 was 13 µM in the experiment with UACC-257 melanoma and 16.1 µM in the experiment with K-562 leukemia. The total growth inhibition concentration (TGI) in the experiment on UACC-62 melanoma is > 100 µM; in the experiment with ACHN renal, 40.9 µM; with OVCAR-5 ovarian, > 100 µM; in the experiment on OVCAR-4 ovarian it was > 100 µM; with TK-10 renal it was 53.5 µM; in the experiment on SK-OV-3 ovarian it was 33.1 µM. For the same molecule, the TGI was 53.3 µM with UACC-257 melanoma and > 100 µM in the experiment with K-562 leukemia.
As for `C#Cc1cccc(N2C(=O)c3c(c(-c4ccccc4)c(-c4ccc(Cc5ccc(-c6c(-c7ccccc7)c7c(c(-c8ccccc8)c6-c6ccccc6)C(=O)N(c6cccc(C#C)c6)C7=O)cc5)cc4)c(-c4ccccc4)c3-c3ccccc3)C2=O)c1`, the TGI was > 100 µM in the experiment with UACC-62 melanoma; > 100 µM in the experiment with ACHN renal; > 100 µM with OVCAR-5 ovarian; > 100 µM in the experiment on OVCAR-4 ovarian; 53.3 µM with TK-10 renal; > 100 µM with UACC-257 melanoma. Further, the concentration for total growth inhibition (TGI) is > 100 µM in the experiment with K-562 leukemia, 41.5 µM in the experiment with M14 melanoma and > 100 µM with CCRF-CEM leukemia.
